Tests used:
HEK293 = test: Cytotoxicity against HEK293T cells; assay type: functional; conditions: Homo sapiens
[1] = test system: Human immunodeficiency virus 1; test: Antiviral activity against HIV1 in HEK293T cells; assay type: functional, organism-based; conditions: Human immunodeficiency virus 1, HEK-293T
[2] = test system: Human immunodeficiency virus 1; test: Antiviral activity against HIV1 I135V mutant; assay type: functional, organism-based
[3] = test system: Human immunodeficiency virus 1; test: Antiviral activity against HIV1 K103N mutant; assay type: functional, organism-based
[4] = test system: Human immunodeficiency virus 1; test: Antiviral activity against HIV1 E138K mutant; assay type: functional, organism-based
[5] = test system: Human immunodeficiency virus 1; test: Antiviral activity against HIV1 F227L mutant; assay type: functional, organism-based
[6] = test system: Human immunodeficiency virus 1; test: Antiviral activity against HIV1 V106A mutant; assay type: functional, organism-based
[7] = test system: Human immunodeficiency virus 1; test: Antiviral activity against HIV1 Y181C mutant; assay type: functional, organism-based
[8] = test system: Human immunodeficiency virus 1; test: Antiviral activity against HIV1 V179E mutant; assay type: functional, organism-based
[9] = test system: Human immunodeficiency virus 1; test: Antiviral activity against HIV1 I135T mutant; assay type: functional, organism-based
[10] = test system: Human immunodeficiency virus 1; test: Antiviral activity against HIV1 Y188L mutant; assay type: functional, organism-based
[11] = test system: Human immunodeficiency virus 1; test: Antiviral activity against HIV1 F227C mutant; assay type: functional, organism-based
[12] = test system: Human immunodeficiency virus 1; test: Antiviral activity against HIV1 L100I mutant; assay type: functional, organism-based
[13] = Oral bioavailability in […] rat at 50 mg/kg, po; assay type: ADME, organism-based; conditions: in vivo
Rattus norvegicus [14] = test: Cmax in […] rat at 50 mg/kg, po normalized to 1 mg/kg; assay type: ADME, organism-based; design: dose 50 mg/kg, route oral; conditions: in vivo
Rattus norvegicus [15] = test: AUC in […] rat at 50 mg/kg, po normalized to 1 mg/kg; assay type: ADME, organism-based, Plasma; conditions: in vivo

EC50 [1] [µM] | Structure (SMILES) | CC50 (HEK293) [µM] | also measured
0.18 | Cc1cnc([C@H]2C[C@]23C(=O)Nc2ccc(Cl)cc23)c(C)c1[N+](=O)[O-] | > 10 | 
0.039 | Cc1cccc([C@H]2C[C@]23C(=O)Nc2ccc(Cl)cc23)n1 | > 10 | 
0.245 | O=C1Nc2ccc(Cl)cc2[C@@]12C[C@@H]2c1ccc(Br)o1 | > 10 | 
0.028 | CC1(C)[C@H](c2cccc(Br)n2)[C@@]12C(=O)Nc1ccc(Cl)cc12 | 5.24 | 
0.463 | COc1c(C)cnc([C@H]2C[C@]23C(=O)Nc2ccc(Cl)cc23)c1C | > 10 | 
> 10 | O=C1Nc2ccc(Cl)cc2[C@@]12C[C@@H]2c1cccc[n+]1[O-] | > 10 | 
5.55 | O=C1Nc2ccc(Cl)cc2[C@@]12C[C@@H]2c1ccc(-c2cccc(C(F)(F)F)c2)o1 | > 10 | 
0.086 | O=C1Nc2ccc(Cl)cc2[C@@]12C[C@@H]2c1cc2ccccc2o1 | > 10 | 
0.436 | CSc1nc([C@H]2C[C@]23C(=O)Nc2ccc(Cl)cc23)ccc1C#N | > 10 | 
0.504 | O=C1Nc2ccc(Cl)cc2[C@@]12C[C@@H]2c1cccc(-c2ccccn2)n1 | > 10 | 
> 10 | Cn1ccnc1[C@H]1C[C@]12C(=O)Nc1ccc(Cl)cc12 | > 10 | 
0.073 | Cc1ccc([C@H]2C[C@]23C(=O)Nc2ccc(Cl)cc23)o1 | > 10 | 
0.167 | COC(=O)c1cc(OC)cc(OC)c1[C@H]1C[C@]12C(=O)Nc1ccc(Cl)cc12 | > 10 | 

Continued, compound first:

Structure (SMILES) | EC50 [1] [µM] | CC50 (HEK293) [µM] | also measured
O=C1Nc2ccc(Cl)cc2[C@@]12C[C@@H]2c1cccnc1 | > 10 | > 10 | 
O=C1Nc2ccc(Cl)cc2[C@@]12C[C@@H]2c1ccc2ccccc2c1 | > 10 | > 10 | 
CC(=O)/C=C/c1cccc([C@H]2C[C@]23C(=O)Nc2ccc(Cl)cc23)n1 | 1.81 | 6.13 | 
Cc1cc([C@H]2C[C@]23C(=O)Nc2ccc(Cl)cc23)oc1C | 0.027 | > 10 | EC50 [2]: 0.059 µM; EC50 [3]: > 10 µM; EC50 [4]: 0.052 µM; EC50 [5]: 0.063 µM; EC50 [6]: 0.63 µM; EC50 [7]: 3.07 µM; EC50 [8]: 2.46 µM; EC50 [9]: 0.236 µM; EC50 [10]: > 10 µM; EC50 [11]: 0.957 µM; EC50 [12]: 0.26 µM
O=C1Nc2ccc(Cl)cc2[C@@](C#CC2CC2)(C(F)(F)F)O1 [EFAVIRENZ] |  | 10 | EC50 [7]: 0.0011 µM; EC50 [9]: 0.001 µM; EC50 [11]: 0.008 µM
O=C1Nc2ccc(Cl)cc2[C@@]12C[C@@H]2c1ccc(Br)cn1 | 0.023 | > 10 | 
O=C1Nc2ccc(Cl)cc2[C@@]12C[C@@H]2c1nn[nH]n1 | > 10 | 7.61 | 
CC#Cc1cccc([C@H]2C[C@]23C(=O)Nc2ccc(Cl)cc23)n1 | 0.648 | > 10 | 
O=C1Nc2ccc(Cl)cc2[C@@]12C[C@@H]2c1cccc(-c2cccs2)n1 | 0.016 | > 10 | EC50 [2]: 0.263 µM; EC50 [3]: 2.24 µM; EC50 [4]: 0.038 µM; EC50 [5]: 0.365 µM; EC50 [6]: 0.147 µM; EC50 [7]: 0.063 µM; EC50 [8]: 0.06 µM; EC50 [9]: 0.068 µM; EC50 [10]: 1.97 µM; EC50 [11]: 0.313 µM; EC50 [12]: 0.1 µM
CCOC(=O)[C@H]1C(C)(C)[C@]12C(=O)Nc1ccc(Br)cc12 |  | > 10 | bioavailability [13]: 27%; Cmax (Rattus norvegicus [14]): 17.9 nM; AUC (Rattus norvegicus [15]): 0.9 µg·min/mL
O=C1Nc2ccc(Cl)cc2[C@@]12C[C@@H]2c1cccc(Br)n1 | 0.023 | > 10 | EC50 [2]: 0.014 µM; EC50 [3]: 1.93 µM; EC50 [4]: 0.032 µM; EC50 [5]: 0.048 µM; EC50 [6]: 0.166 µM; EC50 [7]: 0.134 µM; EC50 [8]: 0.048 µM; EC50 [9]: 0.046 µM; EC50 [10]: 6.52 µM; EC50 [11]: 0.145 µM; EC50 [12]: 0.277 µM
O=C1Nc2ccc(Cl)cc2[C@@]12C[C@@H]2c1ccc2c(O)cccc2n1 | 0.587 | > 10 | 
O=C1Nc2ccc(Cl)cc2[C@@]12C[C@@H]2c1ccsc1 | 0.006 | 1.67 | EC50 [2]: 0.017 µM; EC50 [3]: 0.1 µM; EC50 [4]: 0.03 µM; EC50 [5]: 0.002 µM; EC50 [6]: 0.513 µM; EC50 [7]: 0.031 µM; EC50 [8]: 0.324 µM; EC50 [9]: 0.048 µM; EC50 [10]: 1.25 µM; EC50 [11]: 0.142 µM; EC50 [12]: 0.008 µM
